From patent publication US20130244879A1, “USE OF LIPO-CHITOOLIGOSACCHARIDES TO INITIATE EARLY FLOWERING AND FRUIT DEVELOPMENT IN PLANTS AND RELATED METHODS AND COMPOSITIONS” (NOVOZYMES BIOLOGICALS HOLDING A/S, priority 2003, published 2013)

Columns and labels:
tomato crop = test: Trial 3: summer field trial, foliar LCO on tomato yield; assay type: in vivo; details: for advanced fruiting over control: single application
Procedure: An investigation was conducted to examine whether foliar applications of LCO led to increased yield in tomato crop production. To determine concentrations or strengths to be applicable, testing was conducted with a logarithmic increase in strength from 1 nanogram (ng) to 1000 ng/plant sprayed once, and on half, twice. The trial results are presented in the following FIGS. 11-13 and Tables 6 and 7. The parameter of interest was ripened fruit which was harvested 2 or 3 times a week, recording each time, both fruit weight and number of fruit per set of replicates. It was known that fruit arise from pollinated flowers and that an increase in the one leads to the other. FIG. 11 records, cumulative harvested (red) fruit per treatment. For the single LCO application it will be seen that the 10 and 100 ng/plant treatments have advanced fruiting by some 10 days over control (horizontal separation in weeks). That advance has allowed the plant to bear and ripen more fruit over the season for these treatments (see FIG. 11 note height over control and Tables 6 and 7 for actual weights and numbers harvested). Table 6 and FIG. 12 record harvested weight and numbers of ripened fruit over season and it can be seen that the average weight of the tomatoes is not different between treatments and control. Thus the increase in harvested weight was due to an increase in numbers harvested, in agreement with actual enumeration.

Arabidopsis thaliana = test: Experiments 3 and 4: effect of LCO on flowering in Arabidopsis thaliana; assay type: in vivo; details: vs surfactant treated plants
Procedure: Two experiments were performed to investigate effect of LCO on plant's flowering using experimental model plant Arabidopsis thaliana. Plants were treated with various a range of LCO concentrations. […] The LCO treated plants reached over 80% of plants with open flowers 4 days earlier than control, surfactant treated plants. LCO induced faster and more uniform flowering.

greenhouse tomatoes = test: Experiment 11: LCO foliar application in greenhouse tomatoes; assay type: in vivo, tomato; details: 28 days after transplant
Procedure: Tomatoes were seeded and transplanted into 10″ pots 30 days later in the greenhouse. Plants were sprayed with 5 ml (50 ng) LCO solution per plant 10 days after transplant and 14 days after transplant (50 ng×2). Flowering data was collected 28 days after transplant. The same plants as FIG. 2-1 were sampled for fruit data 28 days after transplant.

Marigold = test: Experiment 5: foliar application of LCO to bedding plants (Marigold); assay type: in vivo
From the text: This is a growth room study. Seeds of garden plant species were selected on the basis of seed-purchase popularity (Norseco, Montreal), grown in trays of Pro-Mix (NB. trademarked name) Seeding Medium, and at some size were transplanted into trays of 36 and 32 wells containing the same medium. Growth proceeded under lights in the growth room. Some 2 weeks before expected flowering, 16 young plants were sprayed with each of various levels of LCO leaving control plants untreated. The results are presented in Table 5A on bud formation and where possible opened flowers.

pepper (cv. Camelot) = test: Experiment 7: foliar application of LCO on pepper; assay type: in vivo
Procedure: 13 pepper seedlings (cv. Camelot, 6-leaf stage) were transplanted in 2 rows per plot (3.5×2.5M^2). The rows were covered with 65 cm width black plastic mulch one week before transplanting. Fertilizer (10-52-10) solution of 250 ppm was applied into the planting hole through the mulch when transplanting (approx. 250 ml per plant). The drip irrigation system was set to twice a week and 4 hours each time, depending on the soil moisture. Plants were sprayed with LCO 14 days after transplanting (5 ml/plant) and 27 days after transplanting (50 ml/plant).

[1] = 1 ng LCO per plant, applied once
[2] = 1 ng LCO per plant, applied twice
[3] = 10 ng LCO per plant, applied once
[4] = 10 ng LCO per plant, applied twice
[5] = 100 ng LCO per plant, applied once
[6] = 100 ng LCO per plant, applied twice
[7] = 1000 ng LCO per plant, applied once
[8] = 1000 ng LCO per plant, applied twice
[9] = single application of 10 ng LCO/plant
[10] = 50 ml/16 plants of 3 × 10^−8M LCO

Which results are given for Lipo-chitooligosaccharides [LCO]?
Increase in No. of Tomatoes from 1 to 2 applications (tomato crop; 1 ng LCO per plant): 21; Yield Increase for 2nd Application (tomato crop; 1 ng LCO per plant): 0.00 Kg per plant; Cumulative Harvest to Sept 23. (24 plant Average) (tomato crop; [1]): Not as good as Control; Cumulative Yield (kg) to Sept 23. Total weight for 24 plants (tomato crop; [1]): 57.7200 kg; Total No. of Tomatoes per treatment (tomato crop; [1]): 300; Yield increase over Control (tomato crop; [1]): 0.0000 Kg per plant; Cumulative Harvest to Sept 23. (24 plant Average) (tomato crop; [2]): Not as good as Control; Cumulative Yield (kg) to Sept 23. Total weight for 24 plants (tomato crop; [2]): 63.8760 kg; Total No. of Tomatoes per treatment (tomato crop; [2]): 321; Increase in No. of Tomatoes from 1 to 2 applications (tomato crop; 10 ng LCO per plant): 11; Yield Increase for 2nd Application (tomato crop; 10 ng LCO per plant): 0.08 Kg per plant; Cumulative Harvest to Sept 23. (24 plant Average) (tomato crop; [3]): 3.0093 Kg per plant; Cumulative Yield (kg) to Sept 23. Total weight for 24 plants (tomato crop; [3]): 72.2240 kg; Percent Yield inc. over Control (tomato crop; [3]): 17.7%; Total No. of Tomatoes per treatment (tomato crop; [3]): 363; Yield increase over Control (tomato crop; [3]): 0.4517 Kg per plant; Cumulative Harvest to Sept 23. (24 plant Average) (tomato crop; [4]): 3.0905 Kg per plant; Cumulative Yield (kg) to Sept 23. Total weight for 24 plants (tomato crop; [4]): 74.1720 kg; Percent Yield inc. over Control (tomato crop; [4]): 12.6%; Total No. of Tomatoes per treatment (tomato crop; [4]): 374; Yield increase over Control (tomato crop; [4]): 0.3452 Kg per plant; Increase in No. of Tomatoes from 1 to 2 applications (tomato crop; 100 ng LCO per plant): −8; Yield Increase for 2nd Application (tomato crop; 100 ng LCO per plant): 0.06 Kg per plant; Cumulative Harvest to Sept 23. (24 plant Average) (tomato crop; [5]): 2.7280 Kg per plant; Cumulative Yield (kg) to Sept 23. Total weight for 24 plants (tomato crop; [5]): 65.4720 kg; Percent Yield inc. over Control (tomato crop; [5]): 6.7%; Total No. of Tomatoes per treatment (tomato crop; [5]): 351; Yield increase over Control (tomato crop; [5]): 0.1703 Kg per plant; Cumulative Harvest to Sept 23. (24 plant Average) (tomato crop; [6]): 2.7917 Kg per plant; Cumulative Yield (kg) to Sept 23. Total weight for 24 plants (tomato crop; [6]): 67.0000 kg; Percent Yield inc. over Control (tomato crop; [6]): 1.7%; Total No. of Tomatoes per treatment (tomato crop; [6]): 343; Yield increase over Control (tomato crop; [6]): 0.0463 Kg per plant; Increase in No. of Tomatoes from 1 to 2 applications (tomato crop; 1000 ng LCO per plant): 35; Yield Increase for 2nd Application (tomato crop; 1000 ng LCO per plant): 0.35 Kg per plant; Cumulative Harvest to Sept 23. (24 plant Average) (tomato crop; [7]): 2.6115 Kg per plant; Cumulative Yield (kg) to Sept 23. Total weight for 24 plants (tomato crop; [7]): 62.6760 kg; Percent Yield inc. over Control (tomato crop; [7]): 2.1%; Total No. of Tomatoes per treatment (tomato crop; [7]): 326; Yield increase over Control (tomato crop; [7]): 0.0538 Kg per plant; Cumulative Harvest to Sept 23. (24 plant Average) (tomato crop; [8]): 2.9588 Kg per plant; Cumulative Yield (kg) to Sept 23. Total weight for 24 plants (tomato crop; [8]): 71.0120 kg; Percent Yield inc. over Control (tomato crop; [8]): 7.8%; Total No. of Tomatoes per treatment (tomato crop; [8]): 361; Yield increase over Control (tomato crop; [8]): 0.2135 Kg per plant; increase in numbers of tomatoes (tomato crop; [9]): ~20%; yield increase over the season (tomato crop; [9]): 17%; advanced fruiting over control (tomato crop; 10 ng/plant): ~10 days; advanced fruiting over control (tomato crop; 100 ng/plant): ~10 days; reached over 80% of plants with open flowers earlier than control (Arabidopsis thaliana): 4 days; tomato early flowering (greenhouse tomatoes; 50 ng/plant single or double): improved tomato early flowering; increased fruit set (greenhouse tomatoes; single 50 ng LCO application): approx. 1 fruit/plant; plants with 4 flower buds per plant (Marigold; 50 ng treatment): 2; Total Number of Marigold buds (Marigold; 20 ml/16 plants of 10^−7M LCO): 26; Total Number of Marigold flower (Marigold; 20 ml/16 plants of 10^−7M LCO): 0; Total Number of Marigold buds (Marigold; 20 ml/16 plants of 10^−8M LCO): 25; Total Number of Marigold flower (Marigold; 20 ml/16 plants of 10^−8M LCO): 2; Total Number of Marigold buds (Marigold; 20 ml/16 plants of 10^−9M LCO): 24; Total Number of Marigold flower (Marigold; 20 ml/16 plants of 10^−9M LCO): 1; Total Number of Marigold buds (Marigold; [10]): 34; Total Number of Marigold flower (Marigold; [10]): 3; First 4 wk yield, Fruit/plant (pepper (cv. Camelot); 14 ng/plant): 5.79ab Fruit/plant; First 4 wk yield, gram/plant (pepper (cv. Camelot); 14 ng/plant): 784.91ab gram/plant; First 4 wk yield, Fruit/plant (pepper (cv. Camelot); 50 ng/plant): 5.83ab Fruit/plant; First 4 wk yield, gram/plant (pepper (cv. Camelot); 50 ng/plant): 833.79ab gram/plant; First 4 wk yield, Fruit/plant (pepper (cv. Camelot); 75 ng/plant): 5.77ab Fruit/plant; First 4 wk yield, gram/plant (pepper (cv. Camelot); 75 ng/plant): 835.26ab gram/plant; First 4 wk yield, Fruit/plant (pepper (cv. Camelot); 100 ng/plant): 4.87b Fruit/plant; First 4 wk yield, gram/plant (pepper (cv. Camelot); 100 ng/plant): 694.48b gram/plant; First 4 wk yield, Fruit/plant (pepper (cv. Camelot); 141 ng/plant): 6.48a Fruit/plant; First 4 wk yield, gram/plant (pepper (cv. Camelot); 141 ng/plant): 934.83a gram/plant; First 4 wk yield, Fruit/plant (pepper (cv. Camelot); 282 ng/plant): 5.02ab Fruit/plant; First 4 wk yield, gram/plant (pepper (cv. Camelot); 282 ng/plant): 702.87b gram/plant; best dose (pepper (cv. Camelot); 5 ml of 2×10^−8M): 141 ng/plant; increase of fruit number in the early stages (pepper (cv. Camelot); foliar application): approximately 1 fruit per plant
